In ChEMBL document CHEMBL1137048, “Design and evaluation of novel nonsteroidal dissociating glucocorticoid receptor ligands” (Bioorg Med Chem Lett, 2004):

Legend:
Glucocorticoid receptor [1] = molecular target: T1, Glucocorticoid receptor (Rattus norvegicus, UniProt P06536); experiment: Repression of AP1-luciferase reporter activity in TPA-stimulated U2OS cells expressing rat glucocorticoid receptor; format: functional, cell-based
T1 sequence (P06536 whole entry): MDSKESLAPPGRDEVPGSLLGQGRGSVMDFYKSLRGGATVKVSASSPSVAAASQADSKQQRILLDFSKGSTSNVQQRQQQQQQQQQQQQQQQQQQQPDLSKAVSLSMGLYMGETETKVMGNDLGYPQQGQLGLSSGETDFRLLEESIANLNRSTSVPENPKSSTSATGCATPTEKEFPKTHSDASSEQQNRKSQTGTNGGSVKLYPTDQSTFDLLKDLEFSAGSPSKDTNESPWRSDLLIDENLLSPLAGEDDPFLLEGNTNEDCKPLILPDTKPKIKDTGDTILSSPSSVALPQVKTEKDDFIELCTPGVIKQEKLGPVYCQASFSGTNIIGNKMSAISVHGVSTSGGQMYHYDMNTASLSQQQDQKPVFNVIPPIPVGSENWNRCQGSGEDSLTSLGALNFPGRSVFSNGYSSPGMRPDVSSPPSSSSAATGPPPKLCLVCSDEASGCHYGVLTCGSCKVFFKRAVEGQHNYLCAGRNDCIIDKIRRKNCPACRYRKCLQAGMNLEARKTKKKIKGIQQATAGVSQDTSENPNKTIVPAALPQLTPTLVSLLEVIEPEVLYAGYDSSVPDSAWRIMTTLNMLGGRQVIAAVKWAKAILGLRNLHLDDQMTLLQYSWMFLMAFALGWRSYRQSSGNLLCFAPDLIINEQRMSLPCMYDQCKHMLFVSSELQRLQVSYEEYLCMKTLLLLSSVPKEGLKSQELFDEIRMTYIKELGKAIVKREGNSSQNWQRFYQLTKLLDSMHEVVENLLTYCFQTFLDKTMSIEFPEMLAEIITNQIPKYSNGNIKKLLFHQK

Glucocorticoid receptor [2] = molecular target: T1, Glucocorticoid receptor; experiment: Inhibition against U2OS cells expressing rat Glucocorticoid receptor; format: cell-based
Glucocorticoid receptor [3] = molecular target: T1, Glucocorticoid receptor; experiment: Repression of NF-kappaB-luciferase reporter activity in TPA stimulated U2OS cells expressing rat glucocorticoid receptor; format: functional, cell-based
Glucocorticoid receptor [4] = molecular target: T1, Glucocorticoid receptor; experiment: Effective concentration against MMTV in transactivation assay in U2OS cells expressing rat GR; format: functional, cell-based
Glucocorticoid receptor [5] = molecular target: T2, Glucocorticoid receptor (Homo sapiens, UniProt P04150); experiment: Binding affinity for recombinant human glucocorticoid receptor
T2 sequence (P04150 whole entry): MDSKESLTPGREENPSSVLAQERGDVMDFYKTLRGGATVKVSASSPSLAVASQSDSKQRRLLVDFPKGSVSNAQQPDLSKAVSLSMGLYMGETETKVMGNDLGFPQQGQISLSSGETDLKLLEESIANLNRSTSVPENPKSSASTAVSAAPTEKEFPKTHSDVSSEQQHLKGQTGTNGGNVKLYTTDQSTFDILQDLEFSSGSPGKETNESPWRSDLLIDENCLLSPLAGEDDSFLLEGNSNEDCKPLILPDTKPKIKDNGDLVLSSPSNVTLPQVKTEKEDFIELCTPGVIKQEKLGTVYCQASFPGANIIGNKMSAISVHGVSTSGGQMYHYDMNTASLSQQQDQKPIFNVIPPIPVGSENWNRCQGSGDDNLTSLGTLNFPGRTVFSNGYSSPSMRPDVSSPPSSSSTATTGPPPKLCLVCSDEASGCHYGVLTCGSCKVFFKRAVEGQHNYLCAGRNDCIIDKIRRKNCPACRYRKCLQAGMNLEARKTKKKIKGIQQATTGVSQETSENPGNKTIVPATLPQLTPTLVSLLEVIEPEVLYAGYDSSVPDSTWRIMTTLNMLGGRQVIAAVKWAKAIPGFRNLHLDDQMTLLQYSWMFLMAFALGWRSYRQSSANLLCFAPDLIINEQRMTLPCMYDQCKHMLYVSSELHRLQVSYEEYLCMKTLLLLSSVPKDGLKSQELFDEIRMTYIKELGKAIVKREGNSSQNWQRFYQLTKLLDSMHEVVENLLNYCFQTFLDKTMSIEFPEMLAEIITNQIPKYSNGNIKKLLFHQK

Glucocorticoid receptor [6] = molecular target: T2, Glucocorticoid receptor; experiment: Effective concentration in CV-1 cell transactivation assay; format: functional, cell-based

| EC50 (Glucocorticoid receptor [1]) | IC50 (Glucocorticoid receptor [2]) | EC50 (Glucocorticoid receptor [3]) | EC50 (Glucocorticoid receptor [4]) | Structure (SMILES) | IC50 (Glucocorticoid receptor [5]) | EC50 (Glucocorticoid receptor [6]) |
| --- | --- | --- | --- | --- | --- | --- |
| 3 nM | 7 nM | 4 nM | 9 nM | C[C@]12Cc3cnn(-c4ccc(F)cc4)c3C=C1CCC[C@@H]2C(O)c1ccc(Cl)cc1 (stereo partly drawn) | – | – |
| – | – | – | – | CC12CCC(=O)C=C1CCCC2C(O)c1csc2ccccc12 (stereo not drawn) | 165 nM | – |
| 16 nM | 6.6 nM | 12 nM | 20 nM | C[C@]12Cc3cnn(-c4ccc(F)cc4)c3C=C1CCC[C@@H]2C(O)c1ccc(O)cc1 (stereo partly drawn) | – | – |
| 19 nM | 2.3 nM | 3 nM | 4 nM | COc1cccc(C(O)[C@H]2CCCC3=Cc4c(cnn4-c4ccc(F)cc4)C[C@@]32C)c1 (stereo partly drawn) | – | – |
| 7 nM | 8.6 nM | 3 nM | 11 nM | C[C@]12Cc3cnn(-c4ccc(F)cc4)c3C=C1CCC[C@@H]2C(O)CCc1ccccc1 (stereo partly drawn) | – | – |
| 31 nM | 14 nM | 24 nM | 31 nM | C[C@]12Cc3cnn(-c4ccc(F)cc4)c3C=C1CCC[C@@H]2C(O)c1ccc(C(F)(F)F)cc1 (stereo partly drawn) | – | – |
| – | – | – | – | COc1cc(C(O)C2CCCC3=CC(=O)CCC32C)cc(OC)c1OC (stereo not drawn) | > 2000 nM | – |
| 3 nM | 7.9 nM | 4 nM | 3 nM | C[C@]12Cc3cnn(-c4ccc(F)cc4)c3C=C1CCC[C@@H]2C(O)c1ccccc1 (stereo partly drawn) | – | – |
| 8 nM | 0.7 nM | 3 nM | 5 nM | CCCCC(O)[C@H]1CCCC2=Cc3c(cnn3-c3ccc(F)cc3)C[C@@]21C (stereo partly drawn) | – | – |
| 6 nM | 4.9 nM | 4 nM | 4 nM | CCCCCCCCC(O)[C@H]1CCCC2=Cc3c(cnn3-c3ccc(F)cc3)C[C@@]21C (stereo partly drawn) | – | – |
| 17 nM | 5.5 nM | 11 nM | 9 nM | C[C@]12Cc3cnn(-c4ccc(F)cc4)c3C=C1CCC[C@@H]2C(O)Cc1ccccc1 (stereo partly drawn) | – | – |
| – | – | – | – | CC12CCC(=O)C=C1CCCC2C(O)c1ccccc1 (stereo not drawn) | 2100 nM | – |
| 3 nM | 2.5 nM | 8 nM | 4 nM | Cc1ccc(C(O)[C@H]2CCCC3=Cc4c(cnn4-c4ccc(F)cc4)C[C@@]32C)cc1 (stereo partly drawn) | – | – |
| 3 nM | 5.2 nM | 3 nM | 3 nM | C[C@]12Cc3cnn(-c4ccc(F)cc4)c3C=C1CCC[C@@H]2C(O)c1cccc(O)c1 (stereo partly drawn) | – | – |
| 1.8 nM | 1.8 nM | 22 nM | 20 nM | C[C@]12Cc3cnn(-c4ccc(F)cc4)c3C=C1CCC[C@@H]2C(O)c1csc2ccccc12 (stereo partly drawn) | – | – |

| Structure (SMILES) | EC50 (Glucocorticoid receptor [1]) | IC50 (Glucocorticoid receptor [2]) | EC50 (Glucocorticoid receptor [3]) | EC50 (Glucocorticoid receptor [4]) | IC50 (Glucocorticoid receptor [5]) | EC50 (Glucocorticoid receptor [6]) |
| --- | --- | --- | --- | --- | --- | --- |
| C[C@]12Cc3cnn(-c4ccc(F)cc4)c3C=C1CCC[C@@H]2C(O)c1ccc(Oc2ccccc2)cc1 (stereo partly drawn) | – | 15.5 nM | – | – | – | – |
| C[C@@H]1C[C@H]2C3CCC4=CC(=O)C=C[C@]4(C)[C@@]3(F)[C@@H](O)C[C@]2(C)[C@@]1(O)C(=O)O (stereo partly drawn) | 0.2 nM | 1.4 nM | 0.3 nM | 0.2 nM | 5 nM | 5.6 nM |
